Experimental data from ChEMBL document CHEMBL3044672, “N9- and N7-(Chloromethyl Phenymethyl)Chloropurine Derivatives from , '-Dichloroxylenes: Synthesis and Anticancer Activity” (2005).

Experiments:
Assay type in all cases: functional
BT-549 = test: Cytotoxicity against Homo sapiens (human) BT549 cells after 48 hr by sulforhodamine B assay; conditions: BT-549, 48 h
A498 = test: Cytotoxicity against Homo sapiens (human) A498 cells after 48 hr by sulforhodamine B assay; conditions: A498, 48 h
MDA-MB-435 = test: Cytotoxicity against Homo sapiens (human) MDA-MB-435 cells after 48 hr by sulforhodamine B assay; conditions: MDA-MB-435, 48 h
SW-620 = test: Cytotoxicity against Homo sapiens (human) SW620 cells after 48 hr by sulforhodamine B assay; conditions: SW-620, 48 h; for CC50: read-out: LC50 (the source's name)
U-251 = test: Cytotoxicity against Homo sapiens (human) U251 cells after 48 hr by sulforhodamine B assay; conditions: U-251, 48 h
KM12 = test: Cytotoxicity against Homo sapiens (human) KM12 cells after 48 hr by sulforhodamine B assay; conditions: KM12, 48 h; for CC50: read-out: LC50 (the source's name)
NCI-H522 = test: Cytotoxicity against Homo sapiens (human) NCI-H522 cells after 48 hr by sulforhodamine B assay; conditions: NCI-H522, 48 h; for CC50: read-out: LC50 (the source's name)
HCT-15 = test: Cytotoxicity against Homo sapiens (human) HCT15 cells after 48 hr by sulforhodamine B assay; conditions: HCT-15, 48 h; for CC50: read-out: LC50 (the source's name)
OVCAR-4 = test: Cytotoxicity against Homo sapiens (human) OVCAR4 cells after 48 hr by sulforhodamine B assay; conditions: OVCAR-4, 48 h
UO-31 = test: Cytotoxicity against Homo sapiens (human) UO31 cells after 48 hr by sulforhodamine B assay; conditions: UO-31, 48 h
NCI-H460 = test: Cytotoxicity against Homo sapiens (human) NCI-H460 cells assessed as cell growth at 10^-4 M after 48 hr by Alamar blue assay; conditions: NCI-H460, 48 h, read-out: Activity
OVCAR-3 = test: Cytotoxicity against Homo sapiens (human) OVCAR3 cells after 48 hr by sulforhodamine B assay; conditions: OVCAR-3, 48 h
K562 = test: Cytotoxicity against Homo sapiens (human) K562 cells after 48 hr by sulforhodamine B assay; conditions: K562, 48 h; for CC50: read-out: LC50 (the source's name)
OVCAR-8 = test: Cytotoxicity against Homo sapiens (human) OVCAR8 cells after 48 hr by sulforhodamine B assay; conditions: OVCAR-8, 48 h
HT-29 = test: Cytotoxicity against Homo sapiens (human) HT-29 cells after 48 hr by sulforhodamine B assay; conditions: HT-29, 48 h; for CC50: read-out: LC50 (the source's name)
SNB-75 = test: Cytotoxicity against Homo sapiens (human) SNB75 cells after 48 hr by sulforhodamine B assay; conditions: SNB-75, 48 h; for CC50: read-out: LC50 (the source's name)
SF-268 = test: Cytotoxicity against Homo sapiens (human) SF268 cells assessed as cell growth at 10^-4 M after 48 hr by […] assay; conditions: SF-268, 48 h, read-out: Activity
RPMI-8226 = test: Cytotoxicity against Homo sapiens (human) RPMI8226 cells after 48 hr by sulforhodamine B assay; conditions: RPMI-8226, 48 h; for CC50: read-out: LC50 (the source's name)
PC-3 = test: Cytotoxicity against Homo sapiens (human) PC3 cells after 48 hr by sulforhodamine B assay; conditions: PC-3, 48 h
HCT-116 = test: Cytotoxicity against Homo sapiens (human) HCT116 cells after 48 hr by sulforhodamine B assay; conditions: HCT-116, 48 h; for CC50: read-out: LC50 (the source's name)
COLO 205 = test: Cytotoxicity against Homo sapiens (human) COLO205 cells after 48 hr by sulforhodamine B assay; conditions: COLO 205, 48 h; for CC50: read-out: LC50 (the source's name)
CCRF-CEM = test: Cytotoxicity against Homo sapiens (human) CCRF-CEM cells after 48 hr by sulforhodamine B assay; conditions: for CC50: read-out: LC50 (the source's name)
SF-539 = test: Cytotoxicity against Homo sapiens (human) SF539 cells after 48 hr by sulforhodamine B assay; conditions: SF-539, 48 h
SN12C = test: Cytotoxicity against Homo sapiens (human) SN12C cells after 48 hr by sulforhodamine B assay
MCF7 = test: Cytotoxicity against Homo sapiens (human) MCF7 cells after 48 hr by sulforhodamine B assay; conditions: MCF7, 48 h
SK-MEL-28 = test: Cytotoxicity against Homo sapiens (human) SK-MEL-28 cells after 48 hr by sulforhodamine B assay; conditions: SK-MEL-28, 48 h
NCI-H226 = test: Cytotoxicity against Homo sapiens (human) NCI-H226 cells after 48 hr by sulforhodamine B assay; conditions: NCI-H226, 48 h; for CC50: read-out: LC50 (the source's name)

## Nc1nc(Cl)c2ncn(Cc3ccccc3CCl)c2n1
BT-549
  LC50 (50% lethal concentration): 57.5 µM
  TGI: 22.9 µM
A498
  LC50 (lethal concentration, 50% cell kill): 95.5 µM
  TGI: 44.7 µM
MDA-MB-435
  LC50: > 100 µM
  TGI: 26.9 µM
SW-620
  TGI: 11.8 µM
  CC50: > 100 µM
U-251
  LC50 (concentration killing 50% of cells): 72.4 µM
  TGI: 13.5 µM
KM12
  TGI: 38.9 µM
  CC50: 97.2 µM
NCI-H522
  TGI: 9.33 µM
  CC50: > 100 µM
HCT-15
  TGI: 7.41 µM
  CC50: > 100 µM
OVCAR-4
  LC50 (concentration killing 50% of cells): 50.1 µM
  TGI: 6.46 µM
UO-31
  LC50 (concentration causing 50% net cell kill): > 100 µM
  TGI: 44.7 µM
NCI-H460
  growth at 100 µM: 0%
OVCAR-3
  LC50: 46.8 µM
  TGI: 20 µM
K562
  TGI: > 100 µM
  CC50: > 100 µM
OVCAR-8
  LC50 (concentration killing 50% of cells): > 100 µM
  TGI: 19.5 µM
HT-29
  TGI: 19.1 µM
  CC50: > 100 µM
SNB-75
  TGI: 23.5 µM
  CC50: 64.6 µM
SF-268
  growth at 100 µM: 67%
RPMI-8226
  TGI: > 100 µM
  CC50: > 100 µM
PC-3
  LC50 (concentration causing 50% cell kill): > 100 µM
  TGI: 67.6 µM
HCT-116
  TGI: > 100 µM
  CC50: > 100 µM
COLO 205
  TGI: > 100 µM
  CC50: > 100 µM
CCRF-CEM
  TGI: > 100 µM
  CC50: > 100 µM
SF-539
  LC50 (concentration killing 50% of cells): 81.3 µM
  TGI: 38 µM
SN12C
  LC50 (50% lethal concentration): 19.5 µM
  TGI: 5.62 µM
MCF7
  LC50 (concentration killing 50% of cells): 87.1 µM
  TGI: 24.6 µM
SK-MEL-28
  LC50 (concentration killing 50% of cells): 74.1 µM
  TGI: 20.9 µM
NCI-H226
  TGI: 10 µM
  CC50: 53.7 µM

## Nc1nc(Cl)c2ncn(Cc3ccc(CCl)cc3)c2n1
BT-549
  LC50 (50% lethal concentration): 69.2 µM
  TGI: 24.6 µM
A498
  LC50 (lethal concentration, 50% cell kill): > 100 µM
  TGI: 85.1 µM
MDA-MB-435
  LC50: > 100 µM
  TGI: 42.7 µM
SW-620
  TGI: 13.8 µM
  CC50: 87.1 µM
U-251
  LC50 (concentration killing 50% of cells): 44.7 µM
  TGI: 12 µM
KM12
  TGI: 22.9 µM
  CC50: 57.5 µM
NCI-H522
  GI50: 10.9 µM
  TGI: 25.7 µM
  CC50: 63.1 µM
HCT-15
  TGI: 19.9 µM
  CC50: 67.6 µM
OVCAR-4
  LC50 (concentration killing 50% of cells): 57.5 µM
  TGI: 30.2 µM
UO-31
  LC50 (concentration causing 50% net cell kill): 55 µM
  TGI: 25.1 µM
NCI-H460
  growth at 100 µM: 0%
OVCAR-3
  LC50: 22.9 µM
  TGI: 5.5 µM
K562
  TGI: > 100 µM
  CC50: > 100 µM
OVCAR-8
  LC50 (concentration killing 50% of cells): > 100 µM
  TGI: 33.1 µM
HT-29
  TGI: 27.5 µM
  CC50: 77.6 µM
SNB-75
  TGI: 91.2 µM
  CC50: > 100 µM
SF-268
  growth at 100 µM: 90%
RPMI-8226
  TGI: > 100 µM
  CC50: > 100 µM
PC-3
  LC50 (concentration causing 50% cell kill): 70.8 µM
  TGI: 25.1 µM
HCT-116
  TGI: 15 µM
  CC50: 56.2 µM
COLO 205
  TGI: 13.5 µM
  CC50: 42.7 µM
CCRF-CEM
  TGI: > 100 µM
  CC50: > 100 µM
SF-539
  LC50 (concentration killing 50% of cells): 46.8 µM
  TGI: 10 µM
SN12C
  LC50 (50% lethal concentration): 60.3 µM
  TGI: 26.9 µM
MCF7
  LC50 (concentration killing 50% of cells): > 100 µM
  TGI: 17 µM
SK-MEL-28
  LC50 (concentration killing 50% of cells): > 100 µM
  TGI: 44.7 µM
NCI-H226
  TGI: 37.1 µM
  CC50: > 100 µM

## ClCc1cccc(Cn2cnc3nc(Cl)nc(Cl)c32)c1
BT-549
  GI50: 0.48 µM
  LC50 (50% lethal concentration): 4.16 µM
  TGI: 1.73 µM
A498
  GI50: 1.51 µM
  LC50 (lethal concentration, 50% cell kill): 5.37 µM
  TGI: 2.81 µM
MDA-MB-435
  GI50: 1.47 µM
  LC50: 5.24 µM
  TGI: 2.81 µM
SW-620
  GI50: 0.41 µM
  TGI: 1.65 µM
  CC50: 4.07 µM
U-251
  GI50: 1.38 µM
  LC50 (concentration killing 50% of cells): 5.12 µM
  TGI: 2.69 µM
KM12
  GI50: 16.6 µM
  TGI: 35.5 µM
  CC50: 74.1 µM
NCI-H522
  GI50: 1.81 µM
  TGI: 3.54 µM
  CC50: 6.91 µM
HCT-15
  GI50: 0.95 µM
  TGI: 2.13 µM
  CC50: 4.57 µM
OVCAR-4
  GI50: 1.58 µM
  LC50 (concentration killing 50% of cells): 5.37 µM
  TGI: 2.95 µM
UO-31
  GI50: 17.4 µM
  LC50 (concentration causing 50% net cell kill): 72.4 µM
  TGI: 35.5 µM
NCI-H460
  growth at 100 µM: 0%
OVCAR-3
  GI50: 1.51 µM
  LC50: 5.37 µM
  TGI: 2.88 µM
K562
  GI50: 1.41 µM
  TGI: 2.69 µM
  CC50: 5.24 µM
OVCAR-8
  GI50: 9.33 µM
  LC50 (concentration killing 50% of cells): 45.7 µM
  TGI: 21.4 µM
HT-29
  GI50: 0.34 µM
SNB-75
  GI50: 1.09 µM
  TGI: 2.29 µM
  CC50: 4.78 µM
SF-268
  growth at 100 µM: 0%
RPMI-8226
  GI50: 1.69 µM
  TGI: 4.16 µM
  CC50: > 100 µM
PC-3
  GI50: 1.54 µM
  LC50 (concentration causing 50% cell kill): 5.37 µM
  TGI: 2.88 µM
HCT-116
  GI50: 0.75 µM
  TGI: 1.99 µM
  CC50: 4.46 µM
COLO 205
  GI50: 0.41 µM
  TGI: 1.65 µM
CCRF-CEM
  GI50: 1.38 µM
  TGI: 2.75 µM
  CC50: 5.49 µM
SF-539
  GI50: 0.16 µM
  LC50 (concentration killing 50% of cells): 1.62 µM
  TGI: 0.46 µM
SN12C
  GI50: 1.44 µM
  TGI: 2.75 µM
MCF7
  GI50: 1.51 µM
  LC50 (concentration killing 50% of cells): > 100 µM
  TGI: 4.07 µM
SK-MEL-28
  GI50: 0.17 µM
  LC50 (concentration killing 50% of cells): 0.97 µM
  TGI: 0.4 µM
NCI-H226
  GI50: 1.28 µM
  TGI: 3.63 µM
  CC50: 19.9 µM
